Columns and labels:
[1] = biological target: T1, PDK1 (Homo sapiens, UniProt O15530); experiment: Test for the inhibition of PDK1 (384-well flashplate, 33P-ATP); type: biochemical; conditions: His6-PDK1 3.4 nM, 4 μM ATP, 30° C., 60 min
T1 construct: His6 (N)
T1 sequence (O15530 51-556 limits assumed): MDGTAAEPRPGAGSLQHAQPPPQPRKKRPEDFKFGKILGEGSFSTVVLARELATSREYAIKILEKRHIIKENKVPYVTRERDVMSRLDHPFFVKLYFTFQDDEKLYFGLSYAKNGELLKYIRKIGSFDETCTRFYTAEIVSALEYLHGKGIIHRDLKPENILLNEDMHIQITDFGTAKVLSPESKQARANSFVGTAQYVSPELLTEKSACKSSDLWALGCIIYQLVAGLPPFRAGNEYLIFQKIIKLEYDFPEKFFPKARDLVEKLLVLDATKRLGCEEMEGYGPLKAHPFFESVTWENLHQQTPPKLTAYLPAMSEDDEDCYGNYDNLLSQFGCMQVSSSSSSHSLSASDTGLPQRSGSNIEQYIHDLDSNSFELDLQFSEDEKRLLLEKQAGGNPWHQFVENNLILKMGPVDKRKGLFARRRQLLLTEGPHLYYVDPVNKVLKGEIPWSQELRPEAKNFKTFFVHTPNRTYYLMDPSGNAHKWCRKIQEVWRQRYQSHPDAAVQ
Description: 4.0 Test for the Inhibition of PDK1
The experimental batches are carried out in a flashplate system with 384 wells/microtitration plate.
In each case, the PDK1 sample His6-PDK1(1-50)(3.4 nM), the PDK1 substrate biotin-bA-bA-[…] (400 nM), 4 μM ATP (with 0.2 μCi of ^33P-ATP/well) and the test substance in 50 μl of conventional experimental solution per well are incubated at 30° C. for 60 min. The test substances are employed in corresponding concentrations (if desired in a dilution series). The control is carried out without test substance. The reaction is stopped using standard methods and washed. The activity of the kinase is measured via the incorporated radioactivity in top count. In order to determine the non-specific kinase reaction (blank value), the experimental batches are carried out in the presence of 100 nM staurosporin.
The radioactivity (decompositions per minute) of the blank value (no use of test substance in the presence of staurosporin) is subtracted from all other radioactivity values. The controls (kinase activity without test substance) are set equal to 100 percent and all other radioactivity values (after subtracting the blank value) are expressed set in relation thereto (for example in % of the control).
IC50 values (50% inhibition) are determined with the aid of statistics programmes, such as, for example, RS1.

[2] = test system: PDK1 kinase activity (P-T308-PKB) in PC3 cells; experiment: Cellular testing of PDK1 kinase inhibitors (Luminex assay, P-T308-PKB in PC3 cells); type: cell-based; conditions: Homo sapiens, PC-3, 0.5 h, serum-free, 30 min with test substance
Description: Description of the Method for Cellular Testing of PDK1 Kinase Inhibitors
The cellular assay for determination of the PDK1 kinase activity is performed as Luminex assay in the 96-well format. PC3 cells are sown at 20,000 cells per well in 100 μl of medium (45% of […]/45% of Ham's F12/10% of FCS) and incubated under serum-free conditions on the following day for 30 min with serial dilution of the test substance (7 concentrations). The cells are subsequently lysed using 90 μl of lysis buffer (20 mM Tris/HCl pH 8.0, 150 mM NaCl, 1% of NP40, 10% of glycerol, 1% of phosphatase inhibitor I, 1% of phosphatase inhibitor II, 0.1% of protease inhibitor Cocktail III, 0.01% of benzonase) per well, and the lysates are separated off from insoluble cell constituents by means of centrifugation through a 96-well filter plate (0.65 μm). The lysates are incubated overnight at 4° C. with shaking with Luminex beads to which an anti-total PKB antibody has been coupled. Detection is carried out on the following day by addition of a P-T308-PKB antibody and a species-specific PE-labelled secondary antibody. The determination of P-T308-PKB is carried out by measurement in the Luminex100 instrument by determination of 100 events per cavity in a measurement time of 60 sec. As pharmacological blank, the signals obtained from cells which have been treated with 10 μM staurosporin are subtracted from all other batches. The control value used for maximum phosphorylation of PKB on T308 are the signals from cells which have been treated only with the solvent (0.3% of DMSO). The values of the batches treated with test substance are calculated from this as percent of control, and IC50 values are determined by means of RS1.

[3] = biological target: T2, IKKε (Homo sapiens, UniProt Q14164); experiment: IKKε kinase test (384-well flashplate); type: biochemical; conditions: 1 nM IKKε, 10 μM ATP, 30° C., 120 min; read-out: IC50 [IKKepsilon]
T2 sequence (Q14164 1-716): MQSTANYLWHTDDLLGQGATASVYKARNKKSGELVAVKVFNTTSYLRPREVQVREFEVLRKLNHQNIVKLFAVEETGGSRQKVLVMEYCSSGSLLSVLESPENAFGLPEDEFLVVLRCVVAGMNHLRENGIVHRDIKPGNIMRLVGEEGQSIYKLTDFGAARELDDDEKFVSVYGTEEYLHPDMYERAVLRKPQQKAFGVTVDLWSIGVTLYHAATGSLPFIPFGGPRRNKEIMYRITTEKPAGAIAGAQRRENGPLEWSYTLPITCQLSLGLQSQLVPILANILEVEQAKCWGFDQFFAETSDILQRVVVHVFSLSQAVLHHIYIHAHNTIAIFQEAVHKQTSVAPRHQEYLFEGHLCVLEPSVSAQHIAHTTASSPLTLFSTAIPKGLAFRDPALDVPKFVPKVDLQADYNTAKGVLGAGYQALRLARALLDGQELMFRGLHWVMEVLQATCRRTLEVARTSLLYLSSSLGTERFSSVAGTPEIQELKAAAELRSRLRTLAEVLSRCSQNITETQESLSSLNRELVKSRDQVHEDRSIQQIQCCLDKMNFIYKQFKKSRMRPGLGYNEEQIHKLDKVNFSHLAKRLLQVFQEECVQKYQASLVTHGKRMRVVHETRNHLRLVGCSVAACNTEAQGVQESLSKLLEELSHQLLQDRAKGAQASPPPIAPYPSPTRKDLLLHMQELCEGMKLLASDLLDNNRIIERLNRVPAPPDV
Description: IKKε—Kinase Test (IKKepsilon)
The kinase assay is performed as 384-well flashplate assay.
1 nM IKKε, 800 nM biotinylated IκBα(19-42) peptide (biotin-C6-C6-[…]) and 10 μM ATP (with 0.3 μCi of ^33P-ATP/well) are incubated in a total volume of 50 μl (10 mM MOPS, 10 mM magnesium acetate, 0.1 mM EGTA, 1 mM dithiothreitol, 0.02% of Brij35, 0.1% of BSA, 0.1% of BioStab, pH 7.5) with or without test substance at 30° C. for 120 min. The reaction is stopped using 25 μl of 200 mM EDTA solution, filtered off with suction after 30 min at room temperature, and the wells are washed 3 times with 100 μl of 0.9% NaCl solution. The non-specific proportion of the kinase reaction (blank) is determined using 3 μM EMD 1126352 (BX-795). Radioactivity is measured in the Topcount. IC50 values are calculated using RS1.

SMILES | IC50 [1] [µM] | IC50 [2] [µM] | IC50 [3] [µM]
Cn1cc(-c2cnc3[nH]cc(-c4cn(Cc5ccccc5F)nn4)c3c2)cn1 [Compound A17, 3-[1-(2-Fluorobenzyl)-1H-1,2,3-triazol-4-yl]-5-(1-methyl-1H-pyrazol-4-yl)-1H-pyrrolo-[2,3-b]pyridine] | 0.0005 to 1 | 0.0005 to 1 | 0.0005 to 1
Cn1cc(-c2cnc3[nH]cc(-c4cn(Cc5cccc(F)c5F)nn4)c3c2)cn1 [Compound A25, 3-[1-(2,3-Difluorobenzyl)-1H-1,2,3-triazol-4-yl]-5-(1-methyl-1H-pyrazol-4-yl)-1H-pyrrolo-[2,3-b]pyridine] | 0.0005 to 1 | 0.0005 to 1 | 0.0005 to 1
Cc1cccc(Cn2cc(-c3c[nH]c4ncc(-c5cnn(C)c5)cc34)nn2)c1 [Compound A7, 3-[1-(3-Methylbenzyl)-1H-1,2,3-triazol-4-yl]-5-(1-methyl-1H-pyrazol-4-yl)-1H-pyrrolo[2,3-b]pyridine] | 0.0005 to 1 | 1 to 10 | 0.0005 to 1
CC(c1ccccc1C(F)(F)F)n1cc(-c2c[nH]c3ncc(-c4cnn(C)c4)cc23)nn1 (stereo not drawn) [Compound A20, 5-(1-Methyl-1H-pyrazol-4-yl)-3-{1-[1-(2-trifluoromethylphenyl)ethyl]-1H-1,2,3-triazol-4-yl}-1H-pyrrolo[2,3-b]pyridine] | 0.0005 to 1 | 1 to 10 | 0.0005 to 1
Cn1cc(-c2cnc3[nH]cc(-c4cn(Cc5ccncc5)nn4)c3c2)cn1 [Compound A9, 5-(1-Methyl-1H-pyrazol-4-yl)-3-(1-pyridin-4-ylmethyl-1H-1,2,3-triazol-4-yl)-1H-pyrrolo-[2,3-b]pyridine] | 0.0005 to 1 | 1 to 10 | 0.0005 to 1
Cn1cc(-c2cnc3[nH]cc(-c4cn(Cc5ccc6ncccc6c5)nn4)c3c2)cn1 [Compound A29, 6-{4-[5-(1-Methyl-1H-pyrazol-4-yl)-1H-pyrrolo[2,3-b]pyridin-3-yl]-1,2,3-triazol-1-ylmethyl}quinoline] | 0.0005 to 1 | 1 to 10 | 1 to 10

— patent US8541584B2, “3-(1,2,3-triazol-4-yl) pyrrolo [2,3-b] pyridine derivatives” (Merck Patent GmbH, priority 2009, dated 2013)
